# Test results published in publication PMC7198601, “Side chain effect in the modulation of αvβ3/α5β1 integrin activity via clickable isoxazoline-RGD-mimetics: development of molecular delivery systems” (Scientific Reports, 2020).
# Like-named read-outs stand apart in the source and are kept apart here.
# How the values were obtained:
# αvβ3 integrin [1] = target: T1, αvβ3 integrin (Homo sapiens, UniProt P05106+P06756); assay: Cell adhesion assay: SK-MEL-24 cells to immobilized fibronectin (αvβ3 integrin-mediated); conditions: for αvβ3 behaviour (agonist/antagonist): SK-MEL-24 cell adhesion to fibronectin
# T1 sequence (P06756 31-889 limits assumed): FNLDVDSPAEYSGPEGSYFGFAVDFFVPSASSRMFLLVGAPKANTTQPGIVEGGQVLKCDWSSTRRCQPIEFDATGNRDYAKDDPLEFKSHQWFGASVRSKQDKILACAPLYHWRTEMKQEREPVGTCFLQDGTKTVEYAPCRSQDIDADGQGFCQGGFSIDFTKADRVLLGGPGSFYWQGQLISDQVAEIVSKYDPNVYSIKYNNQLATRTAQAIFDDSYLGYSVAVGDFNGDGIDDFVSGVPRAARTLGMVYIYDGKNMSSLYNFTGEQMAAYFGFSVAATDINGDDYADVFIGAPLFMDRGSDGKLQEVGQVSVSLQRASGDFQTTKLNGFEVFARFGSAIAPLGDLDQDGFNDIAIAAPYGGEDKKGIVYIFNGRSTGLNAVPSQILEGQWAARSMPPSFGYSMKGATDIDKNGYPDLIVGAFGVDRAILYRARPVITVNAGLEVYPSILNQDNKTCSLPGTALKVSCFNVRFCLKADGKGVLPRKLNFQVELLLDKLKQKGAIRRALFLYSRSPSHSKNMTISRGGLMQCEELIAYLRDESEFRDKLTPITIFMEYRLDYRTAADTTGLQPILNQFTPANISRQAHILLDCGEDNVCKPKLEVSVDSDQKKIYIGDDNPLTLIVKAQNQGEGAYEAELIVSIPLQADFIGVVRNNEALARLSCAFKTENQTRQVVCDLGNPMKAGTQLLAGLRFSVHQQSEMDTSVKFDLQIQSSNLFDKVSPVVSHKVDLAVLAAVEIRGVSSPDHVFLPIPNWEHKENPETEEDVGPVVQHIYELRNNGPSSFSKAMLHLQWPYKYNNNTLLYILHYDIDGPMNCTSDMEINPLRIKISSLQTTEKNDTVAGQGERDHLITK
# T1 sequence (P06756 891-1048 partner limits assumed): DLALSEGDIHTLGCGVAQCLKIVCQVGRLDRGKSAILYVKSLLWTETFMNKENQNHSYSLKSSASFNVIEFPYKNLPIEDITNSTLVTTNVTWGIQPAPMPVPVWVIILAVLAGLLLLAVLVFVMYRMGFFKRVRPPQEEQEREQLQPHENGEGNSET
# T1 sequence (P05106 27-788): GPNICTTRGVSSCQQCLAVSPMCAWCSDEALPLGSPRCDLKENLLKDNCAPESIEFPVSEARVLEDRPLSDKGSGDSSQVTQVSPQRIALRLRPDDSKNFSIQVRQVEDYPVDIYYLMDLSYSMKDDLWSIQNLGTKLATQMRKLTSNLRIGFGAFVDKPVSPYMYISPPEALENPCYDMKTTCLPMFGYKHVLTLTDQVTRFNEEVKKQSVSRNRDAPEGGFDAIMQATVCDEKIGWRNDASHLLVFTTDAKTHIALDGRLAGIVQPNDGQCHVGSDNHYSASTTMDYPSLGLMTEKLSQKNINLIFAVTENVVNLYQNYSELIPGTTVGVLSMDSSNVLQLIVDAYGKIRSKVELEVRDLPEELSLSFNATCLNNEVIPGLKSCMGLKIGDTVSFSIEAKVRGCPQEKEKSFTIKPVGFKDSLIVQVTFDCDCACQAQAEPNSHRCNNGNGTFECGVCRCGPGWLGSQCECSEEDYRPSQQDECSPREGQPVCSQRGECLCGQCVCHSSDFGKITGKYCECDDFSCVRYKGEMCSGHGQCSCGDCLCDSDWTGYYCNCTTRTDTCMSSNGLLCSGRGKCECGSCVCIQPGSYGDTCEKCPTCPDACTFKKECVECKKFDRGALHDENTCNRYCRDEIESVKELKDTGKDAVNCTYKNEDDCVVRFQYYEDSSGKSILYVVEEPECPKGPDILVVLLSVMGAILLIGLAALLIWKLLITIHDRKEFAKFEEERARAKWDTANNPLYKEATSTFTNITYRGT
# Protocol: (§1) The ability of the synthesized racemic ligands to inhibit the adhesion of K562 cells (human erythroleukemic cells, expressing α5β1 integrin) or SK-MEL-24 cells (human malignant melanoma cells, expressing αvβ3 integrin) to immobilized fibronectin was evaluated[29]. […] In these experiments, the cells were seeded onto plates coated with fibronectin and allowed to adhere before quantitation of the number of adherent cells, in presence of increasing concentrations of the compounds.
# (§2) SK-MEL-24 (American Tissue Culture Collection, ATCC, Rockville, MD) were routinely grown in minimum essential medium (MEM, Cambrex, Walkersville, MD) supplemented with 10% fetal bovine serum (FBS), nonessential amino acids, and sodium pyruvate. K-562 (ATCC, Rockville, MD) were maintained as a stationary suspension culture in RPMI-1640 and L-glutamine with 10% FBS (Invitrogen (Carlsbad, CA). Cells were kept at 37 °C in a 5% CO2 humidified atmosphere. Forty hours before experiments, K-562 were treated with 25 ng/mL PMA (Sigma-Aldrich SRL, Milan, Italy) to induce differentiation and to increase expression of cell surface antigens[50].
# (§3) Plates (96 wells) (Corning Costar, Celbio, Milan,Italy) were coated by passive adsorption with fibronectin (10 µg/mL) or poly-L-lysine (0.002%) (Sigma-Aldrich SRL) overnight at 4 °C. Cells were counted with a haemocytometer and pre-incubated with different concentrations of each compound or with the vehicle (methanol) for 30 min at room temperature to reach a ligand-receptor equilibrium. Stock solutions (10^–2 M) of the assayed compounds were prepared in phosphate-buffered saline (PBS). […] This product is a chromogenic substrate for β-N-acetylglucosaminidase that is transformed in 4-nitrophenol whose absorbance can be measured at 405 nm. As previously described[51], there is a linear correlation between absorbance and enzymatic activity. Therefore, it is possible to identify the number of adherent cells among treated wells, interpolating the absorbance values of unknowns in a calibration curve. The reaction was blocked by addition of 100 µL of a stopping solution [50 µM glycine and 5 µM EDTA (pH 10.4)], and the plates were read in an EnSpire Multimode Plate Reader (PerkinElmer, Waltham, MA, USA). Experiments were carried out in quadruplicate and repeated at least three times. Data analysis and IC50/EC50 values were calculated using Graph-Pad Prism 5.0 (GraphPad Software, San Diego, CA).
# α5β1 integrin [2] = target: T2, α5β1 integrin (Homo sapiens, UniProt P05556+P08648); assay: Cell adhesion assay: K562 cells to immobilized fibronectin (α5β1 integrin-mediated); conditions: for α5β1 behaviour (agonist/antagonist): K562 cell adhesion to fibronectin
# T2 sequence (P08648 42-894 limits assumed): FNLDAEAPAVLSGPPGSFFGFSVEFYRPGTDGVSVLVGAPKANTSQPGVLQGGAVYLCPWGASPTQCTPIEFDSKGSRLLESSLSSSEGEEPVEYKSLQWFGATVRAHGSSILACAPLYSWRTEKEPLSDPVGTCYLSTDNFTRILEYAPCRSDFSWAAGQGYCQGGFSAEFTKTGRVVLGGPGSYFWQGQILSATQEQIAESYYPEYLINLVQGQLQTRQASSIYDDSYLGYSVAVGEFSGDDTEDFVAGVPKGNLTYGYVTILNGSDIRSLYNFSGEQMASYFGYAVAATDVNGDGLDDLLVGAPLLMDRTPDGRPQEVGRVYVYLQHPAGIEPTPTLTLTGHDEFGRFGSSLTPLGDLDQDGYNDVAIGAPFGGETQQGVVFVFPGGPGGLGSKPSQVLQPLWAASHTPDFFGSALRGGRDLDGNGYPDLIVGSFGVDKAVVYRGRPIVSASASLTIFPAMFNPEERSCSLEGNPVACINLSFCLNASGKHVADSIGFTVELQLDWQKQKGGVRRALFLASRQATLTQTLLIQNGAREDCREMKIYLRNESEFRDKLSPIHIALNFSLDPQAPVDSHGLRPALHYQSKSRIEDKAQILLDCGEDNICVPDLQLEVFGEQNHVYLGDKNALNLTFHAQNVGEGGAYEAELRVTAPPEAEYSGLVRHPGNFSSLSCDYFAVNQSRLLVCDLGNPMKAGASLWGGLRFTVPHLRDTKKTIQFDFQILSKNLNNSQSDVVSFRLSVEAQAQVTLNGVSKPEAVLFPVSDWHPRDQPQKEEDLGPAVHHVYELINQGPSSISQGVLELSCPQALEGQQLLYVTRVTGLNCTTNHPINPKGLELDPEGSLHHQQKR
# T2 sequence (P08648 895-1049 partner limits assumed): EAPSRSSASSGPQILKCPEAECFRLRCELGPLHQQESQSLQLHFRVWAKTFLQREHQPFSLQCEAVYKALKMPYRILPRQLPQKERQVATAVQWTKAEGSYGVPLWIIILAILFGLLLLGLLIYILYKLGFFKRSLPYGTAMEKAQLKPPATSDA
# T2 sequence (P05556 21-798): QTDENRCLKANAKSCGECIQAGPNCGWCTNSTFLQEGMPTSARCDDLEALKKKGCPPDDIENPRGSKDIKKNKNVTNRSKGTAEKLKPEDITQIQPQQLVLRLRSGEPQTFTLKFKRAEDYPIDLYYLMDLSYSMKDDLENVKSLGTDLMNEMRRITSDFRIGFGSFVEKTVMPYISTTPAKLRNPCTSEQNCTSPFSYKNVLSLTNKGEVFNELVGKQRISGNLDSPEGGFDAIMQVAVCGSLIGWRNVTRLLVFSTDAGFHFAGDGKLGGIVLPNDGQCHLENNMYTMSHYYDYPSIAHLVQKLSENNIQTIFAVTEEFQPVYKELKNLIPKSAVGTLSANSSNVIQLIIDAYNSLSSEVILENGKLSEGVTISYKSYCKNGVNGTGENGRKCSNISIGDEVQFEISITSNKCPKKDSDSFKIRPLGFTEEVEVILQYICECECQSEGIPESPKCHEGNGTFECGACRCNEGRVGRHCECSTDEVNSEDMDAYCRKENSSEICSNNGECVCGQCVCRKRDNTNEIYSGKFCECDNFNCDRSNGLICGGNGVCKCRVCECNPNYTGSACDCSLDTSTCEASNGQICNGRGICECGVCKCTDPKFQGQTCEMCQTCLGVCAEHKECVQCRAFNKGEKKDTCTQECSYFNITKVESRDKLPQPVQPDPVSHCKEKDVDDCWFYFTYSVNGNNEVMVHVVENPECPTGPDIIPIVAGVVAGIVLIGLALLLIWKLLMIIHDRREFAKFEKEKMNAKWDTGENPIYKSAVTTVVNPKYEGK
# Protocol: as §1, §2, §3
# α5β1 integrin [3] = target: T2, α5β1 integrin; assay: α5β1 integrin internalization by confocal microscopy in HEK293 + α5-EGFP cells; type: cell-based; conditions: compound 1 µM, no fibronectin
# Source text: Integrin trafficking is an important mechanism employed by cells to regulate integrin–extracellular matrix interactions, and thus cellular signalling, during processes such as cell migration and invasion. α5β1 integrin is internalized, trafficked to recycling endosomes and then recycled to the plasma membrane[43],[44]. Membrane trafficking pathways influence α5β1’s ability to promote invasion and metastasis[45],[46]. […]
# HEK293 cells (not expressing α5 but endogenously expressing β1 integrin[47],[48] were plated in 6 well plates and at 50–60% confluence were transiently transfected with α5-EGFP plasmid using Lipofectamine2000 transfection reagent (LifeTechnologies). After 48 h from transfection, HEK293 + α5-EGFP cells were assessed to verify integrins expression by flow cytometry (data not shown). α5-EGFP integrin plasmid was a kind gift from Michael Davidson (Addgene plasmid #56423). HEK293 + α5-EGFP cells were treated at 4 °C with fibronectin (10 µg/ml) or the agonist 24 (1 µM) in MEM for 1 hour. Cells exposed to the antagonist 17b (1 µM), before the addition of fibronectin, were pre-incubated with the compound for 20 minutes at 4 °C. […]
# Specimens were embedded in Mowiol and analyzed using a Nikon C1s confocal laser-scanning microscope, equipped with a Nikon PlanApo 60×, 1.4-NA oil immersion lens. […]
# [4] = system: α5β1 integrin-mediated phosphorylation of ERK1/2; assay: α5β1 integrin-mediated ERK1/2 phosphorylation in K562 cells (Western blot); type: cell-based, human; conditions: K562 cells not incubated with fibronectin, compound 10^−7–10^−9 M
# Protocol: The mechanism by which components of extracellular matrix generate intracellular signalling through integrins requires indeed an increased phosphorylation of cytoplasmatic second messengers. Phosphorylation of ERK1/2 plays a central role in fibronectin-mediated survival signalling through integrins: in fact, cell adhesion activates ERK1/2 by binding of α5β1 integrins at the cell surface to extracellular matrix proteins such as fibronectin. The experiment was performed by serum-starving K562 cells in RPMI-1640 containing 1% FBS for 16 h; thereafter, they were preincubated with compound 17b, 24 (10^−7–10^−9 M) or the vehicle for 60 minutes and then plated for 60 minutes on fibronectin.
# Figure 2 (a) Cropped blots related to the effect of compounds 17b and 24 on α5β1 integrin-mediated phosphorylation of ERK1/2 in K562 cells. Cells were serum-starved in RPMI-1640 containing 1% FBS for 16 h; then cells were preincubated with different concentrations of the antagonist 17b (10^−7–10^−9 M) or its vehicle for 1 h in suspension and then were allowed to adhere for 1 h on fibronectin (FN). […] Thereafter cells were lysed and lysates were analysed in Western blot using an antibody directed against phosphorylated ERK1/2 (pERK1/2) or total ERK1/2 (totERK1/2). […]
# K562 cells were incubated in RPMI-1640 with 1% FBS for 16 h. […] Digital images were acquired and analyzed following previously reported methods.
# αvβ3 integrin [5] = target: T1, αvβ3 integrin; design: SK-MEL-24 cells (human malignant melanoma cells, expressing αvβ3 integrin); endogenous in cells; host or cells: SK-MEL-24 (ATCC); conditions: cited from earlier work; for IC50: cell adhesion assay, Figure 1, ref ChemMedChem 2011, 6, 2264–2272; for αvβ3 behaviour (agonist/antagonist): reference compounds, entries 11-19, Dechantsreiter et al. (table footnotes b-h)
# α5β1 integrin [6] = target: T2, α5β1 integrin; design: K562 cells (human erythroleukemic cells, expressing α5β1 integrin); endogenous in cells; host or cells: K-562 (ATCC), treated with PMA 40 h before the experiments; conditions: cited from earlier work; for IC50: cell adhesion assay, Figure 1, ref ChemMedChem 2011, 6, 2264–2272; for α5β1 behaviour (agonist/antagonist): reference compounds, entries 11-17, 41 (table footnotes b-f)
compound,measurement,setting,value
C#CCCCC1C(C(=O)NCc2ccc(N)cc2)=C(C)ON1C(=O)CC(=O)O (centres unmarked) [Compound 8],EC50,αvβ3 integrin [1],0.83 ± 0.05 µM
same,αvβ3 behaviour (agonist/antagonist),αvβ3 integrin [1],agonist
same,IC50,α5β1 integrin [2],> 1000 µM
CC1=C(C(=O)NCc2ccc(N)cc2)C(CCCc2cn(CCNC(=O)OC(C)(C)C)nn2)N(C(=O)CC(=O)O)O1 (centres unmarked) [Compound 17a],IC50,αvβ3 integrin [1],0.88 ± 0.07 µM
same,αvβ3 behaviour (agonist/antagonist),αvβ3 integrin [1],antagonist
same,IC50,α5β1 integrin [2],0.28 ± 0.03 µM
same,α5β1 behaviour (agonist/antagonist),α5β1 integrin [2],antagonist
CC1=C(C(=O)NCc2ccc(N)cc2)C(CCCc2cn(CC(=O)OC(C)(C)C)nn2)N(C(=O)CC(=O)O)O1 (centres unmarked) [Compound 20a],EC50,αvβ3 integrin [1],0.23 ± 0.08 µM
same,αvβ3 behaviour (agonist/antagonist),αvβ3 integrin [1],agonist
same,IC50,α5β1 integrin [2],> 1000 µM
CC1=C(C(=O)NCc2ccc(N)cc2)C(CCCc2cn(CCC(=O)OC(C)(C)C)nn2)N(C(=O)CC(=O)O)O1 (centres unmarked) [Compound 20b],EC50,αvβ3 integrin [1],0.068 ± 0.011 µM
same,αvβ3 behaviour (agonist/antagonist),αvβ3 integrin [1],agonist
same,IC50,α5β1 integrin [2],> 1000 µM
CC1=C(C(=O)NCc2ccc(N)cc2)C(CCCc2cn(CCCNC(=O)CCC(=O)OC(C)(C)C)nn2)N(C(=O)CC(=O)O)O1 (centres unmarked) [Compound 24],α5β1 integrin internalization by compound alone,α5β1 integrin [3],induced α5β1 internalization
same,IC50,αvβ3 integrin [1],> 1000 µM
same,EC50,α5β1 integrin [2],6.59 ± 0.16 µM
same,α5β1 behaviour (agonist/antagonist),α5β1 integrin [2],agonist
same,ERK1/2-phosphorylation,[4],significant concentration dependent increase
CCOC(=O)CCCCn1cc(CCCC2C(C(=O)NCc3ccc(N)cc3)=C(C)ON2C(=O)CC(=O)O)nn1 (centres unmarked) [Compound 26],EC50,αvβ3 integrin [1],0.61 ± 0.08 µM
same,αvβ3 behaviour (agonist/antagonist),αvβ3 integrin [1],agonist
same,IC50,α5β1 integrin [2],> 1000 µM
CC1=C(C(=O)NCc2ccc(N)cc2)C(CCCc2cn(CCOCCOCCNC(=O)OC(C)(C)C)nn2)N(C(=O)CC(=O)O)O1 (centres unmarked) [Compound 28],IC50,αvβ3 integrin [1],8.84 ± 0.14 µM
same,αvβ3 behaviour (agonist/antagonist),αvβ3 integrin [1],antagonist
same,IC50,α5β1 integrin [2],> 1000 µM
CCOC(=O)COCCOCCn1cc(CCCC2C(C(=O)NCc3ccc(N)cc3)=C(C)ON2C(=O)CC(=O)O)nn1 (centres unmarked) [Compound 30],IC50,αvβ3 integrin [1],> 1000 µM
same,IC50,α5β1 integrin [2],> 1000 µM
CC1=C(C(=O)NCc2ccc(N)cc2)C(C)N(C(=O)CC(=O)O)O1 (centres unmarked) [Ref A],IC50,αvβ3 integrin [5],0.032 ± 0.003 µM
same,αvβ3 IC50/EC50 (IC50 for antagonists),αvβ3 integrin [5]; cell adhesion to fibronectin,0.032 ± 0.003 µM
same,αvβ3 behaviour (agonist/antagonist),αvβ3 integrin [5],antagonist
same,IC50,α5β1 integrin [6],0.012 ± 0.004 µM
same,α5β1 IC50/EC50 (IC50 for antagonists),α5β1 integrin [6]; cell adhesion to fibronectin,0.012 ± 0.004 µM
same,α5β1 behaviour (agonist/antagonist),α5β1 integrin [6],antagonist
CC1=C(C(=O)NCc2ccc(N)cc2)C(C(C)C)N(C(=O)CC(=O)O)O1 (centres unmarked) [Ref B],IC50,αvβ3 integrin [5],0.0088 ± 0.0006 µM
same,αvβ3 IC50/EC50 (IC50 for antagonists),αvβ3 integrin [5]; cell adhesion to fibronectin,0.0088 ± 0.0006 µM
same,αvβ3 behaviour (agonist/antagonist),αvβ3 integrin [5],antagonist
same,IC50,α5β1 integrin [6],0.00105 ± 0.0003 µM
same,α5β1 behaviour (agonist/antagonist),α5β1 integrin [6],antagonist
CCC(C)C1C(C(=O)NCc2ccc(N)cc2)=C(C)ON1C(=O)CC(=O)O (centres unmarked) [Ref C],IC50,αvβ3 integrin [5],0.36 ± 0.07 µM
same,αvβ3 IC50/EC50 (IC50 for antagonists),αvβ3 integrin [5]; cell adhesion to fibronectin,0.360 ± 0.070 µM
same,αvβ3 behaviour (agonist/antagonist),αvβ3 integrin [5],antagonist
same,IC50,α5β1 integrin [6],1.32 ± 0.08 µM
same,α5β1 IC50/EC50 (IC50 for antagonists),α5β1 integrin [6]; cell adhesion to fibronectin,1.320 ± 0.080 µM
same,α5β1 behaviour (agonist/antagonist),α5β1 integrin [6],antagonist
CC1=C(C(=O)NCc2ccc(N)cc2)C(C2CCCCC2)N(C(=O)CC(=O)O)O1 (centres unmarked) [Ref D],IC50,αvβ3 integrin [5],0.02 ± 0.006 µM
same,αvβ3 IC50/EC50 (IC50 for antagonists),αvβ3 integrin [5]; cell adhesion to fibronectin,0.020 ± 0.006 µM
same,αvβ3 behaviour (agonist/antagonist),αvβ3 integrin [5],antagonist
same,IC50,α5β1 integrin [6],1.03 ± 0.05 µM
same,α5β1 IC50/EC50 (IC50 for antagonists),α5β1 integrin [6]; cell adhesion to fibronectin,1.030 ± 0.050 µM
same,α5β1 behaviour (agonist/antagonist),α5β1 integrin [6],antagonist
"Cc1ccccc1NC(=O)N1C(=O)CC1CC(=O)NCC(=O)O (centres unmarked) [Ref E, 2-(2-(4-Oxo-(o-tolylcarbamoyl)azetidin-2-yl)acetamido)acetic acid]",αvβ3 IC50/EC50,αvβ3 integrin [5]; cell adhesion to fibronectin,>1000 µM
same,α5β1 IC50/EC50 (EC50 for agonists),α5β1 integrin [6]; cell adhesion to fibronectin,0.0129 ± 0.0006 µM
same,α5β1 behaviour (agonist/antagonist),α5β1 integrin [6],agonist
Ac-Asp-Arg-Leu-Asp-Ser-OH (Ac-DRLDS-OH) [standard antagonist of cell adhesion mediated by αvβ3 integrin],αvβ3 IC50/EC50 (IC50 for antagonists),αvβ3 integrin [5]; reference compound,0.025 ± 0.003 µM
same,αvβ3 behaviour (agonist/antagonist),αvβ3 integrin [5],antagonist
same,α5β1 IC50/EC50,α5β1 integrin [6]; reference compound,>1000 µM
H-Gly-Arg-Gly-Asp-Thr-Pro-OH (H-GRGDTP-OH) [standard antagonist of cell adhesion mediated by α5β1 integrin],αvβ3 IC50/EC50 (IC50 for antagonists),αvβ3 integrin [5]; reference compound,0.926 ± 0.006 µM
same,αvβ3 behaviour (agonist/antagonist),αvβ3 integrin [5],antagonist
same,α5β1 IC50/EC50 (IC50 for antagonists),α5β1 integrin [6]; reference compound,0.00062 ± 0.00009 µM
same,α5β1 behaviour (agonist/antagonist),α5β1 integrin [6],antagonist
